Experimental findings from article PMC4869123 (Scientific Reports, 2016) are described below.

*1 amine or outer side, *2 acyl side, *3 side chain or, on linkers, in order; H or OH if unused. Where a SMILES comes first, the peptide text is derived from it. Bridges are numbered along the chain shown (N, C = ends). Roman numbers before positions name the chains, in order. Where no end group is shown, it is not given here. [ ]: non-standard residue; d: D form. The star is where a group is joined. X1 = O=C(CCOCCOCCOCCOCCOCCOCCOCCOCCOCCOCCOCCOCCOCCOCCOCCOCCOCCOCCOCCOCCOCCC(=O)[*:2])[*:1]; X2 = CCNC(=O)CCOCCOCCOCCOCCOCCOCCOCCOCCOCCOCCOCCOCCOCCOCCOCCOCCOCCOCCOCCOCCOCCC(=O)*; CO(CH2CH2O)5CH2CH2CO = O=C(CCOCCOCCOCCOCCOCCC(=O)[*:2])[*:1]; Lys(Me2) = CN(C)CCCC[C@H](N)C(=O)O Some results are limits rather than exact numbers.

One experiment deals with T1, human IL-17A (Homo sapiens, UniProt Q16552).
T1 construct: host or cells: added to BJ human fibroblasts (ATCC CRL2522)
The experiment in a line: BJ human fibroblast cell assay, IL-17A stimulated GRO-α production. It counts as cell-based. The note with it: BJ human fibroblast cells, 1 ng/ml human IL-17A. The text has this: For inhibitor screen, human BJ fibroblast cells (ATCC CRL2522) (American Type Culture Collection, VA) were used. For mouse cell based assay MLE-12 mouse epithelial cells (ATCC CRL2110) were used. Both cell lines were maintained in ATCC recommended media.

For experiment [1], the target named is T2, biotinylated recombinant human IL-17A (rhIL-17, R&D Systems #317-ILB) (human, UniProt Q16552 24-155, biotinylated).
T2 construct: IL-17A, human, recombinant; also called Biotinylated IL-17A; source: bought: R&D Systems
The settings on record: both partners purified.

In general, IC50 refers to the concentration needed to halve the response being measured.

T1 sequence (Q16552 24-155): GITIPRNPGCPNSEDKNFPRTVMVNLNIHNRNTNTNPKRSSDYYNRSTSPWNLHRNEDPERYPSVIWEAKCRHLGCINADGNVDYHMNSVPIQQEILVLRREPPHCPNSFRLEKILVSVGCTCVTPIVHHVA
T2 sequence (Q16552 24-155): as above

Molecule `CC[C@H](C)[C@H](NC(C)=O)C(=O)N[C@H](C(=O)N[C@H](C(=O)N[C@H](C(=O)N[C@H](C(=O)N1CCC[C@H]1C(=O)N[C@@H](C)C(=O)N[C@@H](CC(=O)O)C(=O)N[C@@H](CC(C)C)C(=O)N[C@@H](Cc1c[nH]c2ccccc12)C(=O)N[C@@H](CC(=O)O)C(=O)N[C@@H](Cc1c[nH]c2ccccc12)C(=O)N[C@H](C(=O)N[C@@H](CC(N)=O)C(=O)N[C@@H](CCCCN(C)C)C(=O)N[C@@H](CCCCNC(=O)CCOCCOCCOCCOCCOCCOCCOCCOCCOCCOCCOCCOCCOCCOCCOCCOCCOCCOCCOCCOCCOCCC(=O)NCCCC[C@H](NC(=O)[C@H](CCCCN(C)C)NC(=O)[C@H](CC(N)=O)NC(=O)[C@@H](NC(=O)[C@H](Cc1c[nH]c2ccccc12)NC(=O)[C@H](CC(=O)O)NC(=O)[C@H](Cc1c[nH]c2ccccc12)NC(=O)[C@H](CC(C)C)NC(=O)[C@H](CC(=O)O)NC(=O)[C@H](C)NC(=O)[C@@H]1CCCN1C(=O)[C@@H](NC(=O)[C@@H](NC(=O)[C@@H](NC(=O)[C@@H](NC(=O)[C@@H](NC(C)=O)[C@@H](C)CC)[C@@H](C)O)C(C)C)[C@@H](C)O)[C@@H](C)CC)[C@@H](C)CC)C(N)=O)C(N)=O)[C@@H](C)CC)[C@@H](C)CC)[C@@H](C)O)C(C)C)[C@@H](C)O` [Compound 47] (I: Ac-ITVTIPADLWDWIN[Lys(Me2)]K-NH2 / II: Ac-ITVTIPADLWDWIN[Lys(Me2)]K-NH2; linker I:16-II:16 via X1) came in with an IC50 on human IL-17A of 16 nM.
Still for that read-out and setting: the figure for `CC[C@H](C)[C@H](NC(C)=O)C(=O)N[C@H](C(=O)N[C@H](C(=O)N[C@@H](CCCCNC(=O)CCOCCOCCOCCOCCOCCC(=O)NCCCC[C@H](NC(=O)[C@@H](NC(=O)[C@@H](NC(=O)[C@@H](NC(C)=O)[C@@H](C)CC)[C@@H](C)O)C(C)C)C(=O)N[C@H](C(=O)N1CCC[C@H]1C(=O)N[C@@H](C)C(=O)N[C@@H](CC(=O)O)C(=O)N[C@@H](CC(C)C)C(=O)N[C@@H](Cc1c[nH]c2ccccc12)C(=O)N[C@@H](CC(=O)O)C(=O)N[C@@H](Cc1c[nH]c2ccccc12)C(=O)N[C@H](C(=O)N[C@@H](CC(N)=O)C(=O)N[C@@H](CCCCN(C)C)C(N)=O)[C@@H](C)CC)[C@@H](C)CC)C(=O)N[C@H](C(=O)N1CCC[C@H]1C(=O)N[C@@H](C)C(=O)N[C@@H](CC(=O)O)C(=O)N[C@@H](CC(C)C)C(=O)N[C@@H](Cc1c[nH]c2ccccc12)C(=O)N[C@@H](CC(=O)O)C(=O)N[C@@H](Cc1c[nH]c2ccccc12)C(=O)N[C@H](C(=O)N[C@@H](CC(N)=O)C(=O)N[C@@H](CCCCN(C)C)C(N)=O)[C@@H](C)CC)[C@@H](C)CC)C(C)C)[C@@H](C)O` [Compound 40] (I: Ac-ITVKIPADLWDWIN[Lys(Me2)]-NH2 / II: Ac-ITVKIPADLWDWIN[Lys(Me2)]-NH2; linker I:4-II:4 via CO(CH2CH2O)5CH2CH2CO) is 3370 nM; for `CC[C@H](C)[C@H](NC(C)=O)C(=O)N[C@H](C(=O)N[C@H](C(=O)N[C@@H](CCCCNC(=O)CCOCCOCCOCCOCCOCCOCCOCCOCCOCCOCCOCCOCCOCCOCCOCCOCCOCCOCCOCCOCCOCCC(=O)NCCCC[C@H](NC(=O)[C@@H](NC(=O)[C@@H](NC(=O)[C@@H](NC(C)=O)[C@@H](C)CC)[C@@H](C)O)C(C)C)C(=O)N[C@H](C(=O)N1CCC[C@H]1C(=O)N[C@@H](C)C(=O)N[C@@H](CC(=O)O)C(=O)N[C@@H](CC(C)C)C(=O)N[C@@H](Cc1c[nH]c2ccccc12)C(=O)N[C@@H](CC(=O)O)C(=O)N[C@@H](Cc1c[nH]c2ccccc12)C(=O)N[C@H](C(=O)N[C@@H](CC(N)=O)C(=O)N[C@@H](CCCCN(C)C)C(N)=O)[C@@H](C)CC)[C@@H](C)CC)C(=O)N[C@H](C(=O)N1CCC[C@H]1C(=O)N[C@@H](C)C(=O)N[C@@H](CC(=O)O)C(=O)N[C@@H](CC(C)C)C(=O)N[C@@H](Cc1c[nH]c2ccccc12)C(=O)N[C@@H](CC(=O)O)C(=O)N[C@@H](Cc1c[nH]c2ccccc12)C(=O)N[C@H](C(=O)N[C@@H](CC(N)=O)C(=O)N[C@@H](CCCCN(C)C)C(N)=O)[C@@H](C)CC)[C@@H](C)CC)C(C)C)[C@@H](C)O` [Compound 41] (I: Ac-ITVKIPADLWDWIN[Lys(Me2)]-NH2 / II: Ac-ITVKIPADLWDWIN[Lys(Me2)]-NH2; linker I:4-II:4 via X1) it is 15 nM; for Ac-TIPADLWDWINK-NH2 [Compound 34] it is greater than 1000 nM.
`CCNC(=O)CCOCCOCCOCCOCCOCCOCCOCCOCCOCCOCCOCCOCCOCCOCCOCCOCCOCCOCCOCCOCCOCCC(=O)NCCCC[C@H](NC(=O)[C@@H](NC(=O)[C@H](Cc1c[nH]c2ccccc12)NC(=O)[C@H](CC(=O)O)NC(=O)[C@H](Cc1c[nH]c2ccccc12)NC(=O)[C@H](CC(C)C)NC(=O)[C@H](CC(=O)O)NC(=O)[C@H](C)NC(=O)[C@@H]1CCCN1C(=O)[C@@H](NC(=O)[C@@H](NC(=O)[C@@H](NC(=O)[C@@H](NC(=O)[C@@H](NC(C)=O)[C@@H](C)CC)[C@@H](C)O)C(C)C)[C@@H](C)O)[C@@H](C)CC)[C@@H](C)CC)C(=O)N[C@@H](CCCCN(C)C)C(N)=O` [Compound 48] (Ac-ITVTIPADLWDWIK(X2)[Lys(Me2)]-NH2) came in with an IC50 against human IL-17A of 21 nM.
Turning to Ac-IHVTIPADLWDWI-NH2 [Compound 36], at human IL-17A, the IC50 came to 183 nM.
At human IL-17A, `CC[C@H](C)[C@H](NC(C)=O)C(=O)N[C@H](C(=O)N[C@H](C(=O)N[C@H](C(=O)N[C@H](C(=O)N1CCC[C@H]1C(=O)N[C@@H](CCCCNC(=O)CCOCCOCCOCCOCCOCCC(=O)NCCCC[C@H](NC(=O)[C@@H]1CCCN1C(=O)[C@@H](NC(=O)[C@@H](NC(=O)[C@@H](NC(=O)[C@@H](NC(=O)[C@@H](NC(C)=O)[C@@H](C)CC)[C@@H](C)O)C(C)C)[C@@H](C)O)[C@@H](C)CC)C(=O)N[C@@H](CC(=O)O)C(=O)N[C@@H](CC(C)C)C(=O)N[C@@H](Cc1c[nH]c2ccccc12)C(=O)N[C@@H](CC(=O)O)C(=O)N[C@@H](Cc1c[nH]c2ccccc12)C(=O)N[C@H](C(=O)N[C@@H](CC(N)=O)C(=O)N[C@@H](CCCCN(C)C)C(N)=O)[C@@H](C)CC)C(=O)N[C@@H](CC(=O)O)C(=O)N[C@@H](CC(C)C)C(=O)N[C@@H](Cc1c[nH]c2ccccc12)C(=O)N[C@@H](CC(=O)O)C(=O)N[C@@H](Cc1c[nH]c2ccccc12)C(=O)N[C@H](C(=O)N[C@@H](CC(N)=O)C(=O)N[C@@H](CCCCN(C)C)C(N)=O)[C@@H](C)CC)[C@@H](C)CC)[C@@H](C)O)C(C)C)[C@@H](C)O` [Compound 42] (I: Ac-ITVTIPKDLWDWIN[Lys(Me2)]-NH2 / II: Ac-ITVTIPKDLWDWIN[Lys(Me2)]-NH2; linker I:7-II:7 via CO(CH2CH2O)5CH2CH2CO) returned an IC50 of 24 nM.
On human IL-17A, `CC[C@H](C)[C@H](NC(C)=O)C(=O)N[C@@H](Cc1c[nH]cn1)C(=O)N[C@H](C(=O)N[C@H](C(=O)N[C@H](C(=O)N1CCC[C@H]1C(=O)N[C@@H](C)C(=O)N[C@@H](CC(=O)O)C(=O)N[C@@H](CC(C)C)C(=O)N[C@@H](Cc1c[nH]c2ccccc12)C(=O)N[C@@H](CC(=O)O)C(=O)N[C@@H](Cc1c[nH]c2ccccc12)C(=O)N[C@H](C(=O)N[C@@H](CC(N)=O)C(N)=O)[C@@H](C)CC)[C@@H](C)CC)[C@@H](C)O)C(C)C` [Compound 35] returned an IC50 of 12 nM.
In the case of `CC[C@H](C)[C@H](NC(=O)CCOCCOCCOCCOCCOCCOCCOCCOCCOCCOCCOCCOCCOCCOCCOCCOCCOCCOCCOCCOCCOCCC(=O)N[C@H](C(=O)N[C@H](C(=O)N[C@H](C(=O)N[C@H](C(=O)N[C@H](C(=O)N1CCC[C@H]1C(=O)N[C@@H](C)C(=O)N[C@@H](CC(=O)O)C(=O)N[C@@H](CC(C)C)C(=O)N[C@@H](Cc1c[nH]c2ccccc12)C(=O)N[C@@H](CC(=O)O)C(=O)N[C@@H](Cc1c[nH]c2ccccc12)C(=O)N[C@H](C(=O)N[C@@H](CC(N)=O)C(=O)N[C@@H](CCCCN(C)C)C(N)=O)[C@@H](C)CC)[C@@H](C)CC)[C@@H](C)O)C(C)C)[C@@H](C)O)[C@@H](C)CC)C(=O)N[C@H](C(=O)N[C@H](C(=O)N[C@H](C(=O)N[C@H](C(=O)N1CCC[C@H]1C(=O)N[C@@H](C)C(=O)N[C@@H](CC(=O)O)C(=O)N[C@@H](CC(C)C)C(=O)N[C@@H](Cc1c[nH]c2ccccc12)C(=O)N[C@@H](CC(=O)O)C(=O)N[C@@H](Cc1c[nH]c2ccccc12)C(=O)N[C@H](C(=O)N[C@@H](CC(N)=O)C(=O)N[C@@H](CCCCN(C)C)C(N)=O)[C@@H](C)CC)[C@@H](C)CC)[C@@H](C)O)C(C)C)[C@@H](C)O` [Compound 39] (I: ITVTIPADLWDWIN[Lys(Me2)]-NH2 / II: ITVTIPADLWDWIN[Lys(Me2)]-NH2; linker I:N-II:N via X1), the IC50 at human IL-17A is 0.74 nM.

B1: peptide 27 (peptide)
peptide: Ac-IVVTMPADLWDWIMA
modifications: not fully specified (C-terminus)
notes: analogue of peptide 2, M at position 14; made on Rink resin; a C-terminal amide is surmised; source: synthetic peptide
Turning to B1, the IC50 in experiment [1] was 31 nM.

B2: peptide 28 (peptide)
peptide: Ac-IVVTMPADLWDWINA
modifications: not fully specified (C-terminus)
notes: analogue of peptide 2, N at position 14; made on Rink resin; a C-terminal amide is surmised; source: synthetic peptide
With B2, the IC50 in experiment [1] was 26 nM.

B3: peptide 2 (peptide)
peptide: Ac-IVVTMPADLWDWIRA
modifications: not fully specified (C-terminus)
notes: analogue of peptide 1 with lysine to arginine at position 14; parent of the alanine scan; made on Rink resin; a C-terminal amide is surmised; source: synthetic peptide
On to B3, for which the IC50 in experiment [1] came to 80 nM.
